Reference: PubChem BioAssay (NCI)
Where “and” joins values, the source holds several entries; their conditions need not be identical. Equal values may be shown once.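 A five-concentration, 48-hour dose response in 96-well plates underlies each endpoint, interpolated linearly between surrounding concentrations. Here, GI50 denotes the concentration required for 50% inhibition of growth. TGI denotes the concentration required for complete inhibition of growth.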

Columns and labels:
Test in all cases: NCI tumour cell line growth inhibition, 48 h
[1] = system: COLO 205 colon
[2] = system: HCT-116 colon
[3] = system: HCT-15 colon
[4] = system: HT29 colon
[5] = system: LOX IMVI melanoma
[6] = system: NCI/ADR-RES ovarian
[7] = system: OVCAR-3 ovarian
[8] = system: OVCAR-8 ovarian
[9] = system: RXF 393 renal
[10] = system: SF-295 CNS
[11] = system: SF-539 CNS
[12] = system: SN12C renal
[13] = system: SNB-75 CNS
[14] = system: UACC-62 melanoma

Row | Compound | TGI [1] | TGI [2] [µM] | TGI [3] | TGI [4] [µM] | TGI [5] [µM] | TGI [6] | TGI [7] | TGI [8] [µM] | TGI [9] [µM] | TGI [10] [µM] | TGI [11] [µM] | TGI [12] [µM] | TGI [13] [µM] | TGI [14] | GI50 [1] | GI50 [3] [µM] | GI50 [6] [µM] | GI50 [7] [µM] | GI50 [8] [µM] | GI50 [14] [µM]
1 | OCC1OC(n2cnc3c2NC=NC[C@H]3O)C(O)C1O (stereo partly specified) | > 450 µM | > 450 | > 450 µM | > 450 | > 450 | > 450 µM | > 450 µM | > 450 | > 450 | > 450 | > 450 | > 450 | > 450 | > 450 µM | – | – | – | – | – | –
2 | CCOC(=O)c1csc(NC(=O)C(C)N2CCCCC2)n1 (stereo unspecified) | > 100 µM | – | > 100 µM | > 100 | > 100 | > 100 µM | > 100 µM | > 100 | > 100 | > 100 | > 100 | – | > 100 | > 100 µM | – | – | – | – | – | –
3 | CCCCN1C=CN2c3nc4cc(C)c(C)cc4n3C(C(=O)OC)=C(C(=O)OC)C12 (stereo unspecified) | – | > 100 | > 100 µM | > 100 | > 100 | – | > 100 µM | > 100 | > 100 | > 100 | > 100 | > 100 | > 100 | > 100 µM | – | – | – | – | – | –
4 | C=C1C(=O)O[C@H]2[C@H]1[C@@H](OC(=O)C=C(C)C)CC1=C[C@@H](C[C@@]3(C)O[C@@H]23)OC1=O | 2.49 µM and 4.17 µM | 16.5 | 3.97 µM and 11.7 µM | 12.5 | – | 6.18 µM and 13.4 µM | 4.77 µM and 15.6 µM | 7.5 | 3.82 | 28.4 | 5.29 | 12.7 | 33.3 | 12.8 µM and 31.6 µM | 0.993 µM and 2.27 µM | 3.46 | 3.89 | 4.92 | 1.99 | 11.3
5 | C=CCn1c(=O)n(CC=C)c(=O)n(CC=C)c1=O | > 100 µM | > 100 | > 100 µM | – | > 100 | – | > 100 µM | > 100 | > 100 | > 100 | > 100 | > 100 | – | > 100 µM | – | – | – | – | – | –
6 | COc1ccnc2c1C(=O)c1nc3ccccc3c3ccnc-2c13 | 0.723 µM | 1.03 | 0.145 µM | 0.89 | 5.47 | 0.147 µM | > 100 µM | 0.224 | 0.86 | 1.15 | 33.7 | 0.535 | 0.589 | 0.504 µM | – | – | – | – | – | –
7 | CN(C)C(=O)OCOC(=O)N(C)C | > 100 µM | > 100 | > 100 µM | > 100 | > 100 | > 100 µM | > 100 µM | > 100 | > 100 | > 100 | > 100 | > 100 | > 100 | > 100 µM | – | – | – | – | – | –
8 | COC(=O)c1ccc(/C=C2\N=C(C)OC2=O)cc1 | > 100 µM | > 100 | > 100 µM | > 100 | > 100 | – | > 100 µM | > 100 | – | > 100 | > 100 | > 100 | > 100 | > 100 µM | – | – | – | – | – | –
9 | CCOC(=O)CC1CCN(C(=O)c2ccccc2)C2Cc3c([nH]c4ccccc34)C12C[N+](=O)[O-] (stereo unspecified) | > 100 µM | – | > 100 µM | > 100 | > 100 | > 100 µM | – | > 100 | > 100 | > 100 | > 100 | > 100 | > 100 | > 100 µM | – | – | – | – | – | –
10 | COC(=O)C1OC(Oc2cc(O)c3c(=O)cc(-c4ccc(O)cc4)oc3c2)C(O)C(O)C1O (stereo unspecified) | > 100 µM | > 100 | > 100 µM | > 100 | > 100 | > 100 µM | > 100 µM | > 100 | > 100 | > 100 | > 100 | > 100 | > 100 | > 100 µM | – | – | – | – | – | –
11 | CO[C@H]1[C@@H](O)[C@@H](C)O[C@@H](O[C@H]2CC[C@@]3(C)[C@H](CC[C@@H]4[C@@H]3CC[C@]3(C)[C@@H](C5=CC(=O)OC5)[C@@H](OC(C)=O)C[C@]43O)C2)[C@@H]1O | 0.447 µM | 0.109 | 0.292 µM | 0.209 | 0.194 | 0.175 µM | 0.0905 µM | 0.152 | 0.0523 | 0.55 | 0.091 | – | 0.332 | 0.215 µM | – | – | – | – | – | –
12 | CC(=O)OCC1OC(Nc2ncc(-c3ccc(C)cc3)s2)C(OC(C)=O)C(OC(C)=O)C1OC(C)=O (stereo unspecified) | > 100 µM | > 62.5 | > 100 µM | > 100 | > 68.3 | 78 µM | > 88.1 µM | > 100 | > 100 | > 100 | > 82.6 | 62.2 | > 100 | > 77.2 µM | – | – | – | – | – | –
13 | O=C1NC(=O)C(CCO)(c2ccccc2)C(=O)N1 | > 100 µM | > 100 | > 100 µM | > 100 | > 31.6 | > 100 µM | > 100 µM | > 100 | > 100 | > 100 | > 100 | > 100 | > 100 | > 100 µM | – | – | – | – | – | –
14 | O=C(CC(c1ccccc1)N1CCCCC1)c1ccccc1 (stereo unspecified) | 37.9 µM | 19.9 | 36.6 µM | 29.5 | 20.6 | 60.8 µM | 23.9 µM | 33.4 | 33.6 | 31.2 | 39.2 | 32.6 | 31.4 | 30.7 µM | – | – | – | – | – | –
15 | O=c1c(-c2ccccc2)c(SCCCN2CCN(c3cccc(Cl)c3)CC2)n(-c2ccccc2)c(=S)n1-c1ccccc1 | > 100 µM | – | > 100 µM | > 100 | > 100 | > 100 µM | > 100 µM | > 100 | > 100 | > 100 | > 100 | – | > 100 | > 100 µM | – | – | – | – | – | –
